Reference: patent US4950659A, “16,17-acetalsubstituted androstane-17β-carboxylic acid esters prossessing high binding affinity to the glucocorticosteroid receptor” (Aktiebolaget Draco, priority 1985, dated 1990)

Molecular target: T1, glucocorticoid receptor (Rattus norvegicus, UniProt P06536)
T1 construct: The thymus was removed and put into ice-cold saline; from tissue; host or cells: thymus of male Sprague-Dawley rats, 20,000×g supernatant of homogenate
T1 sequence (P06536 1-795): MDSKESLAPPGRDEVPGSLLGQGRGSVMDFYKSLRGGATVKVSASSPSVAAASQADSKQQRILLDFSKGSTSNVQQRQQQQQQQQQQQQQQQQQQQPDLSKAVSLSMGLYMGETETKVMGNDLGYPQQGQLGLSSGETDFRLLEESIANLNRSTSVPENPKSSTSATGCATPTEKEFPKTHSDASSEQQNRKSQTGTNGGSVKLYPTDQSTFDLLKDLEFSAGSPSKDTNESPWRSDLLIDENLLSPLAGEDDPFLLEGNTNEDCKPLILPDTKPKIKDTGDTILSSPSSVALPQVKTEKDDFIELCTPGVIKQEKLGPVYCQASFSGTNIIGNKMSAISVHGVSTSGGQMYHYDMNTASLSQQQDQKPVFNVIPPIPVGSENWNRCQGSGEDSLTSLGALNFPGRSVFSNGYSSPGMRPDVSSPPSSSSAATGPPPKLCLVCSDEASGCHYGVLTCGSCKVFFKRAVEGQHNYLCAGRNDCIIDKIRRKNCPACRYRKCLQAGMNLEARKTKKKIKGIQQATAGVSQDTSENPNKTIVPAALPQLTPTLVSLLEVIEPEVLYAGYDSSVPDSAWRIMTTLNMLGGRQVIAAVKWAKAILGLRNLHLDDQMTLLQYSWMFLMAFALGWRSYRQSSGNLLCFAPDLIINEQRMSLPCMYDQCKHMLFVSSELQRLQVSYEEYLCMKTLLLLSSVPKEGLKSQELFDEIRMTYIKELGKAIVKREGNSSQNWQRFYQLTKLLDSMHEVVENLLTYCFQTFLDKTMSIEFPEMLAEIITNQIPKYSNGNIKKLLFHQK
Assay: Relative binding affinity to the glucocorticoid receptor: competition with 3H-labelled dexamethasone in rat thymus 20,000×g supernatant
Details: curves compared at the 50% specific binding level of [3H]dexamethasone, referenced to budesonide, assigned RBA = 1, about 24 h at 0° C.
Description: All steroids according to the present invention are physiologically active compounds. The affinity of the novel androstane-17β-carboxylic acid esters to the glucocorticoid receptor has been used as a model for determination of the anti-inflammatory potency.
Male Sprague-Dawley rats, one to two months of age, were used throughout the investigation. The thymus was removed and put into ice-cold saline. The tissue was homogenized in a Potter Elvehjem homogenizer in 10 ml of a buffer containing 20 mM Tris, pH 7.4, 10% (w/v) glycerol, 1 mM EDTA, 20 mM NaMoO4, 10 mM mercaptoethanol. The homogenate was centrifuged for 15 min at 20,000×g. Portions of the 20,000×g supernatant (230 μl) were incubated for about 24 h at 0° C. with 100 μl phenylmethylsulphonylfluoride (an esterase inhibitor, final conc. 0.5 mM). 20 μl unlabelled competitor and 50 μl ^3 H-labelled dexamethasone (final conc. […]). Bound and free steroid were separated by incubating the mixture with 60 μl 2.5% (w/v) charcoal and 0.25% (w/v) dextran T70 suspension in 20 mM Tris, pH 7.4, 1 mM EDTA, and 20 mM NaMoO4 for 10 min at 0° C. Following a centrifugation at 500×g for 10 min, 230 μl or the supernatant was counted in 10 ml Insta-Gel in a Packard scintillation spectrophotometer. The supernatants were incubated with (a) [^3 H]dexamethasone alone, (b) [^3 H]dexamethasone plus 1000 fold excess of unlabelled dexamethasone and (c) [^3 H]dexamethasone plus 0.03-300 fold "excess" of competitor. The nonspecific binding was determined when 1000 fold excess of unlabelled dexamethasone was added to [^3 H]-labelled dexamethasone.
The radioactivity bound to the receptor in the presence of competitor divided by the radioactivity bound to the receptor in the absence of competitor multiplied by 100 gives the percentage specific binding of labelled dexamethasone. For each concentration of a competitor the percentage specifically bound radioactivity is plotted against the log of concentration of competitor. The curves are compared at the 50% specific binding level and referenced to budesonide, which is assigned a relative binding affinity (RBA) of 1.

Compound | relative binding affinities (RBA) to the glucocorticoid receptor
CCOC(=O)OC(C)OC(=O)C12OC(C)(C)OC1CC1C3CC(F)C4=CC(=O)C=CC4(C)C3(F)C(O)CC12C (single isomer, unassigned) [Example 4 epimer B, 1'-Ethoxycarbonyloxyethyl 6α,9α-difluoro-11β-hydroxy-16α,17α-[(1-methylethylidene)bis(oxy)]androsta-1,4-diene-3-one-17β-carboxylate] | 0.30
CC(=O)OC(C)OC(=O)C12OC(C)(C)OC1CC1C3CC(F)C4=CC(=O)C=CC4(C)C3(F)C(O)CC12C (single isomer, unassigned) [Example 5 epimer B, 1'-Acetoxyethyl 6α,9α-difluoro-11β-hydroxy-16α,17α-[(1-methylethylidene)bis(oxy)]androsta-1,4-diene-3-one-17β-carboxylate] | 0.17
CC(C)OC(=O)OC(C)OC(=O)C12OC(C)(C)OC1CC1C3CC(F)C4=CC(=O)C=CC4(C)C3(F)C(O)CC12C (single isomer, unassigned) [Example 27, 1'-isopropoxycarbonyloxyethyl 6α,9α-difluoro-11β-hydroxy-16α,17α-[(1-methylethylidene)bis(oxy)]androsta-1,4-diene-3-one-17β-carboxylate] | 0.50
CCC[C@@H]1O[C@@H]2C[C@H]3[C@@H]4CCC5=CC(=O)C=C[C@]5(C)[C@@]4(F)[C@@H](O)C[C@]3(C)[C@]2(C(=O)OC(C)OC(C)=O)O1 (single isomer, unassigned) [Example 55] | 0.20
CCC[C@@H]1O[C@@H]2C[C@H]3[C@@H]4CCC5=CC(=O)C=C[C@]5(C)[C@@]4(F)[C@@H](O)C[C@]3(C)[C@]2(C(=O)OC(C)OC(=O)OCC)O1 (single isomer, unassigned) [Example 69] | 0.44
CCC[C@@H]1O[C@@H]2C[C@H]3[C@@H]4C[C@H](F)C5=CC(=O)C=C[C@]5(C)[C@@]4(F)[C@@H](O)C[C@]3(C)[C@]2(C(=O)OC(C)OC(=O)OCC)O1 (single isomer, unassigned) [Example 84] | 1.03
CCC[C@@H]1O[C@@H]2C[C@H]3[C@@H]4C[C@H](F)C5=CC(=O)C=C[C@]5(C)[C@@]4(F)[C@@H](O)C[C@]3(C)[C@]2(C(=O)OC(C)OC(=O)OC(C)C)O1 (single isomer, unassigned) [Example 87] | 0.63
CCOC(=O)OC(C)(C)OC(=O)C12OC(C)(C)OC1CC1C3CC(F)C4=CC(=O)C=CC4(C)C3(F)C(O)CC12C (stereo not shown) [Example 38] | 0.04
CCC[C@@H]1O[C@@H]2C[C@H]3[C@@H]4C[C@H](F)C5=CC(=O)C=C[C@]5(C)[C@@]4(F)[C@@H](O)C[C@]3(C)[C@]2(C(=O)OCOC(=O)OCC)O1 [Example 64] | 0.05
CCC[C@@H]1O[C@@H]2C[C@H]3[C@@H]4CCC5=CC(=O)C=C[C@]5(C)[C@H]4[C@@H](O)C[C@]3(C)[C@]2(C(=O)OC(C)OC(=O)OCC)O1 (stereo partly shown) [Example 67] | 0.04
